US7312236B2, “Substituted (4-aminocyclohexen-1-yl)phenyl and (4-aminocyclohexen-1-yl)pyridinyl compounds as 5-HT1F agonists” (Eli Lilly and Company, priority 2004, dated 2007)

What was measured:
[1] = tested on: dural protein extravasation; test: Dural protein extravasation assay (trigeminal ganglion stimulation); parameters: species or system rats or guinea pigs; settings: in vivo
Method: The inhibition of dural protein extravasation is a functional assay for the neuronal mechanism of migraine. A compound's ability to inhibit dural protein extravasation can be tested as described in the following assay.
Anesthetize Harlan Sprague-Dawley rats (225-325 g) or guinea pigs from Charles River Laboratories (225-325 g) with sodium pentobarbital (intraperitoneal injection, 65 mg/kg or 45 mg/kg, respectively). For each animal, place the animal in a stereotaxic frame (David Kopf Instruments) with the incisor bar set at −3.5 mm for rats or −4.0 mm for guinea pigs. […]
Quantify the amount of Evans Blue dye in each sample using a fluorescence microscope (Zeiss) equipped with a grating monochronomator, a spectrophotometer, a computer-driven motorized stage, and an interface to a personal computer. For each dural membrane sample, measure fluorescence at 25 points (500 μm steps covering a 2.5×2.5 mm square area) using an excitation wavelength of approximately 535 nm and measuring the emission intensity at a wavelength of 600 nm. Determined the mean and standard deviation of these measurements. […]

[2] = tested on: rabbit saphenous vein; test: Rabbit saphenous vein contraction; settings: Oryctolagus cuniculus
Method: Bend the tips of two 30-gauge stainless steel hypodermic needles into an L-shape and slip them into the lumen of the polyethylene tubing. Gently push vein tissue from the cannula onto the needles. Separate the needles and attach the lower needle with thread to a stationary glass rod and the upper needle with thread to a force transducer (Statham UC-3). Mount the tissues in organ baths containing 10 mL of modified Krebs' solution. Maintain tissue bath solutions at 37° C. and […] […] Apply an initial optimum resting force of 4 grams to the vein tissue. Record isometric contractions as changes in grams of force on a Beckman Dynograph with Statham UC-3 transducers and microscale accessory attachments. […] Flush the bath, allow the tissue to re-equilibrate under a 4 gram force, add test compound and record the force of contraction. Add additional compound to achieve the next concentration in a range of compound concentrations to generate cumulative agonist concentration-response curves for each test compound. Tissues can be used to generate up to two agonist concentration-response curves. […] Two important parameters can be measured with this vasoconstriction assay, saphenous vein contraction (EC50) and maximal contraction as a percentage of the maximal KCl response (%max KCl).

EC50 [2]: 660 nM
SMILES: CNS(=O)(=O)Cc1ccc2[nH]cc(CCN(C)C)c2c1 [sumatriptan]
extravasation inhibition ID50 [1]: 2.6e-08 mmol/kg
